The results in this text go back to patent US20260234112A1, “COMPOUNDS, COMPOSITIONS, AND METHODS OF USE THEREOF” (Type6 Therapeutics, Inc., priority 2023, published 2026).

The test concerns the target T1, Cdk2(2-298) (Homo sapiens, UniProt P24941).
T1 construct: Biotinylated N-terminal avi-tagged Cdk2(2-298) or Cdk1(1-297) was immobilized
Description: Surface Plasmon Resonance (SPR) compound interaction, Biacore 8K. The following applies: single-cycle kinetics (SCK, "S"), dissociation 1800 sec, read-out: Activity rating (KD). It counts as binding. As to the method: Compound interaction was profiled using a Biacore 8K instrument (Cytiva). Biotinylated N-terminal avi-tagged Cdk2(2-298) or Cdk1(1-297) was immobilized on a series S sensor Chip SA at a capture level between 2500 RU and 3000 RU (Cdk2) or 7000 RU (Cdk1) in buffer (25 mM HEPES, 150 mM NaCl, 0.05% Tween20, pH 7.5). A compound dilution plate (8 concentrations, 3-fold dilution) in DMSO was prepared (100× assay concentration). From this plate, compound DMSO stock solution was transferred into buffer, yielding a final DMSO concentration of 1% in assay. The remaining buffer was supplemented with 1% DMSO. Compounds were injected in a series of increasing concentrations in multi-cycle kinetics (MCK, “M”) or single-cycle kinetics (SCK, “S”) mode at a flow rate of 30 μl/min for 120 sec and dissociation was profiled for 180 sec (MCK) or 1800 sec (SCK). Data were analysed using Biacore Insight Evaluation Software (Cytiva).
Consider `N[C@H]1CC[C@H](Nc2nccc(-c3cnccc3Oc3ccc(NS(=O)(=O)c4c(F)cccc4F)cc3F)n2)CC1` [Compound 26, N-[4-[[3-[2-[(1r,4r)(4-Aminocyclohexyl)amino]pyrimidin-4-yl]-4-pyridyl]oxy]-3-fluoro-phenyl] 2,6-difluoro-benzenesulfonamide], for which the equilibrium dissociation constant (Kd) is not above 10 nM.
For `COc1ccccc1S(=O)(=O)Nc1ccc(Oc2ccncc2-c2ccnc(N[C@H]3CC[C@H](N)CC3)n2)c(F)c1` [Compound 27, N-(4-((3-(2-((1r,4r)-4-aminocyclohexyl)amino)pyrimidin-4-yl)pyridin-4-yloxy)-3-fluorophenyl) 2-methoxybenzenesulfonamide], the dissociation constant (Kd) is 11 to 100 nM.
The figure for `COc1ccc(Br)cc1S(=O)(=O)Nc1ccc(Oc2ccncc2-c2ccnc(N[C@H]3CC[C@H](N)CC3)n2)c(F)c1` [Compound 28, N-(4-((3-(2-((1r,4r)-4-aminocyclohexyl)amino)pyrimidin-4-yl)pyridin-4-yloxy)-3-fluorophenyl) 5-bromo-2-methoxybenzenesulfonamide] is 100 to 1000 nM; for `N[C@H]1CC[C@H](Nc2nccc(-c3cnccc3Oc3ccc(NS(=O)(=O)c4cccs4)cc3F)n2)CC1` [Compound 29] it is 11 to 100 nM.
For the compound `N#Cc1ccc(S(=O)(=O)Nc2ccc(Oc3ccncc3-c3ccnc(N[C@H]4CC[C@H](N)CC4)n3)c(F)c2)cc1` [Compound 30, N-(4-((3-(2-((1r,4r)-4-aminocyclohexyl)amino)pyrimidin-4-yl)pyridin-4-yloxy)-3-fluorophenyl) 4-cyanobenzenesulfonamide], the equilibrium dissociation constant (Kd) lay within 100 to 1000 nM.
The figure for `N[C@H]1CC[C@H](Nc2nccc(-c3cnccc3Oc3ccc(NS(=O)(=O)c4csc5ccccc45)cc3F)n2)CC1` [Compound 31, N-(4-((3-(2-((1r,4r)-4-aminocyclohexyl)amino)pyrimidin-4-yl)pyridin-4-yloxy)-3-fluorophenyl) benzo[b]thiophene-3-sulfonamide] is 11 to 100 nM; for `N[C@H]1CC[C@H](Nc2nccc(-c3cnccc3Oc3ccc(NS(=O)(=O)c4ccccc4)c(C(F)(F)F)c3)n2)CC1` [Compound 32, N-(4-((3-(2-(((1r,4r)-4-Aminocyclohexyl)amino)pyrimidin-4-yl)pyridin-4-yl)oxy)-2-(trifluoromethyl)phenyl) benzenesulfonamide] it is 100 to 1000 nM; for `C=Cc1ccccc1S(=O)(=O)Nc1ccc(Oc2ccncc2-c2ccnc(N[C@H]3CC[C@H](N)CC3)n2)c(F)c1` [Compound 33, N-[4-[[3-[2-(1r,4r)[(4-Aminocyclohexyl)amino]pyrimidin-4-yl]-4-pyridyl]oxy]-3-fluoro-phenyl]-2-ethenylbenzenesulfonamide] it is not above 10 nM.
With `O=S(=O)(Nc1ccc(Oc2ccncc2-c2ccnc(N[C@H]3CCCNC3)n2)c(F)c1)c1ccccc1Cl` [Compound 34, N-[3-Fluoro-4-[[3-[2-[[(3S)-3-piperidyl]amino]pyrimidin-4-yl]-4-pyridyl]oxy]phenyl] 2-chlorobenzenesulfonamide] the figure was not above 10 nM; with `Cc1ccc(C#N)cc1S(=O)(=O)Nc1ccc(Oc2ccncc2-c2ccnc(N[C@H]3CC[C@H](N)CC3)n2)c(F)c1` [Compound 35, N-(4-((3-(2-(((1r,4r)-4-aminocyclohexyl)amino)pyrimidin-4-yl)pyridin-4-yl)oxy)-3-fluorophenyl) 5-cyano-2-methylbenzenesulfonamide], 11 to 100 nM.
Turning to `N[C@H]1CC[C@H](Nc2nccc(-c3cnccc3Oc3ccc(NS(=O)(=O)C4CC4)cc3F)n2)CC1` [Compound 36, N-[4-[[3-[2-[(1r,4r)(4-Aminocyclohexyl)amino]pyrimidin-4-yl]-4-pyridyl]oxy]-3-fluorophenyl] cyclopropanesulfonamide], the dissociation constant (Kd) was more than 5000 nM.
Take `N[C@H]1CC[C@H](Nc2nccc(-c3cnccc3Oc3ccc(NS(=O)(=O)c4ccccc4)cc3F)n2)CC1` [Compound 37, N-[4-[[3-[2-[(1r,4r)(4-Aminocyclohexyl)amino]pyrimidin-4-yl]-4-pyridyl]oxy]-3-fluorophenyl] benzenesulfonamide]: the equilibrium dissociation constant (Kd) was 11 to 100 nM.
In the case of `NC(=O)c1ccc(S(=O)(=O)Nc2ccc(Oc3ccncc3-c3ccnc(N[C@H]4CC[C@H](N)CC4)n3)c(F)c2)cc1` [Compound 38, 4-(N-(4-((3-(2-(((1r,4r)-4-aminocyclohexyl)amino)pyrimidin-4-yl)pyridin-4-yl)oxy)-3-fluorophenyl)sulfamoyl) benzamide], the Kd lay within 100 to 1000 nM.
With `N[C@H]1CC[C@H](Nc2nccc(-c3cnccc3Oc3ccc(NS(=O)(=O)C4CCC4)cc3F)n2)CC1` [Compound 39, N-[4-[[3-[2-[(1r,4r)(4-Aminocyclohexyl)amino]pyrimidin-4-yl]-4-pyridyl]oxy]-3-fluorophenyl]cyclobutanesulfonamide], the Kd was 1000 to 5000 nM.
The figure for `CS(=O)(=O)Nc1ccc(Oc2ccncc2-c2ccnc(N[C@H]3CC[C@H](N)CC3)n2)c(F)c1` [Compound 40, N-(4-((3-(2-(((1r,4r)-4-aminocyclohexyl)amino)pyrimidin-4-yl)pyridin-4-yl)oxy)-3-fluorophenyl) methanesulfonamide] is 1000 to 5000 nM; for `N[C@H]1CC[C@H](Nc2nccc(-c3cnccc3Oc3ccc(NS(=O)(=O)c4ccc5c(c4)OCO5)cc3F)n2)CC1` [Compound 41, N-[4-[[3-[2-[(1r,4r)(4-aminocyclohexyl)amino]pyrimidin-4-yl]-4-pyridyl]oxy]-3-fluorophenyl]1,3-benzodioxol-5-ylsulfonamide] it is 100 to 1000 nM; for `N[C@H]1CC[C@H](Nc2nccc(-c3cnccc3Oc3ccc(NS(=O)(=O)c4cccc5cccnc45)cc3F)n2)CC1` [Compound 42, N-[4-[[3-[2-[(1r,4r)(4-aminocyclohexyl)amino]pyrimidin-4-yl]-4-pyridyl]oxy]-3-fluorophenyl]quinoline-8-sulfonamide] it is 100 to 1000 nM.
Take `COc1ccc(S(=O)(=O)Nc2ccc(Oc3ccncc3-c3ccnc(N[C@H]4CC[C@H](N)CC4)n3)c(F)c2)c(C)c1C` [Compound 43, N-[4-[[3-[2-[(1r,4r)(4-aminocyclohexyl)amino]pyrimidin-4-yl]-4-pyridyl]oxy]-3-fluorophenyl] 4-methoxy-2,3-dimethyl-benzenesulfonamide]: the Kd is 11 to 100 nM.
The figure for `N[C@H]1CC[C@H](Nc2nccc(-c3cnccc3Oc3ccc(NS(=O)(=O)Cc4ccccc4)cc3F)n2)CC1` [Compound 44, N-[4-[[3-[2-[(1r,4r)(4-Aminocyclohexyl)amino]pyrimidin-4-yl]-4-pyridyl]oxy]-3-fluorophenyl] phenylmethanesulfonamide] is 1000 to 5000 nM; for `Cc1cc2cc(S(=O)(=O)Nc3ccc(Oc4ccncc4-c4ccnc(N[C@H]5CC[C@H](N)CC5)n4)c(F)c3)ccc2[nH]1` [Compound 45, N-[4-[[3-[2-[(1r,4r)(4-aminocyclohexyl)amino]pyrimidin-4-yl]-4-pyridyl]oxy]-3-fluorophenyl] 2-methyl-1H-indole-5-sulfonamide] it is more than 5000 nM; for `N[C@H]1CC[C@H](Nc2nccc(-c3cnccc3Oc3ccc(NS(=O)(=O)c4ccccc4)c(F)c3)n2)CC1` [Compound 46, N-[4-[[3-[2-[(1r,4r)(4-Aminocyclohexyl)amino]pyrimidin-4-yl]-4-pyridyl]oxy]-2-fluorophenyl] benzenesulfonamide] it is 100 to 1000 nM.
As to `N[C@H]1CC[C@H](Nc2nccc(-c3cnccc3Oc3cc(Cl)c(NS(=O)(=O)c4ccccc4Cl)cc3F)n2)CC1` [Compound 47, N-[4-[[3-[2-[(1r,4r)(4-Aminocyclohexyl)amino]pyrimidin-4-yl]-4-pyridyl]oxy]-2-chloro-5-fluorophenyl] 2-chlorobenzenesulfonamide], the equilibrium dissociation constant (Kd) is not above 10 nM.
The figure for `N[C@H]1CC[C@H](Nc2nccc(-c3cnccc3Oc3cc(Cl)c(NS(=O)(=O)c4ccccc4)cc3F)n2)CC1` [Compound 48, N-[4-[[3-[2-[(1r,4r)(4-Aminocyclohexyl)amino]pyrimidin-4-yl]-4-pyridyl]oxy]-2-chloro-5-fluorophenyl] benzenesulfonamide] is 11 to 100 nM.
With `N[C@H]1CC[C@H](Nc2nccc(-c3cnccc3Oc3cc(Cl)c(NS(=O)(=O)Cc4ccccc4)cc3F)n2)CC1` [Compound 49, N-[4-[[3-[2-[(1r,4r)(4-Aminocyclohexyl)amino]pyrimidin-4-yl]-4-pyridyl]oxy]-2-chloro-5-fluorophenyl] phenylmethanesulfonamide], the Kd was 100 to 1000 nM.
For `N[C@H]1CC[C@H](Nc2nccc(-c3cnccc3Oc3ccc(NS(=O)(=O)C4CC4)c(Cl)c3)n2)CC1` [Compound 50, N-[4-[[3-[2-[(1r,4r)(4-Aminocyclohexyl)amino]pyrimidin-4-yl]-4-pyridyl]oxy]-2-chlorophenyl] cyclopropanesulfonamide], the Kd was more than 5000 nM.
With `N[C@H]1CC[C@H](Nc2nccc(-c3cnccc3Oc3ccc(NS(=O)(=O)Cc4ccccc4)c(Cl)c3)n2)CC1` [Compound 51, N-[4-[[3-[2-[(1r,4r)(4-Aminocyclohexyl)amino]pyrimidin-4-yl]-4-pyridyl]oxy]-2-chlorophenyl] phenylmethanesulfonamide], the Kd lay in the range of 1000 to 5000 nM.
The figure for `N[C@H]1CC[C@H](Nc2nccc(-c3cnccc3Oc3ccc(NS(=O)(=O)c4ccccc4)c(Cl)c3F)n2)CC1` [Compound 52, N-[4-[[3-[2-[(1r,4r)(4-Aminocyclohexyl)amino]pyrimidin-4-yl]-4-pyridyl]oxy]-2-chloro-3-fluorophenyl] benzenesulfonamide] is 11 to 100 nM.
